Measurements published in ChEMBL document CHEMBL1145105, “Synthesis and benzodiazepine receptor affinity of pyrazolo[1,5-a]pyrimidine derivatives. 3. New 6-(3-thienyl) series as alpha 1 selective ligands” (J Med Chem, 2003).
pKi: −log10 of the molar value. Values joined by “and” are separate entries in the source; they are usually repeats but may differ in a detail not shown here. Identical values can stand only once.

What was measured:
[1] = test system: Mus musculus; test: Synergic sedative effect was tested in mice using the Hole Board test at peroral dose of 10 mg/kg, value was expressed in holes; format: functional; settings: route oral
[2] = test system: Mus musculus; test: Muscle relaxant effect in mice at dose of 10 mg/kg using rotarod test, value was expressed as no. of falls in 30 seconds; format: functional
[3] = test system: Mus musculus; test: Synergic sedative effect was tested in mice using the Hole Board test at peroral dose of 10 mg/kg, value was expressed in plane; format: functional; settings: route oral
[4] = test system: Mus musculus; test: Percent anticonvulsant activity against PTZ induced attack in mice at dose of 10 mg/kg; format: functional
[5] = molecular target: T1, GABA-A receptor; anion channel (Bos taurus) (UniProt P10063+P08220+P20237+P08219+P10064+P22300); test: Percent inhibition of [3H]Ro-151788 binding to bovine brain GABA-A central benzodiazepine receptor at 0.2 nM
[6] = molecular target: T1, GABA-A receptor; anion channel (Bos taurus); test: Relative binding to GABA-A receptor in the presence and absence of GABA (GABA shift), Ki(-GABA)/Ki(+GABA); format: protein-complex assay
[7] = molecular target: GABA-A receptor; anion channel; test: Inhibition of [3H]Ro-151788 binding to GABA-A central benzodiazepine receptor of bovine brain membranes; format: cell membranes, Bos taurus
[8] = molecular target: T2, GABA A receptor alpha-2/beta-2/gamma-2 (Rattus norvegicus, UniProt P18508+P23576+P63138); test: Binding affinity for recombinant rat GABA-A receptor alpha-2-beta-2-gamma-2 subunits expressed in HEK293 cells; format: cell-based
T2 sequence (P18508 whole entry): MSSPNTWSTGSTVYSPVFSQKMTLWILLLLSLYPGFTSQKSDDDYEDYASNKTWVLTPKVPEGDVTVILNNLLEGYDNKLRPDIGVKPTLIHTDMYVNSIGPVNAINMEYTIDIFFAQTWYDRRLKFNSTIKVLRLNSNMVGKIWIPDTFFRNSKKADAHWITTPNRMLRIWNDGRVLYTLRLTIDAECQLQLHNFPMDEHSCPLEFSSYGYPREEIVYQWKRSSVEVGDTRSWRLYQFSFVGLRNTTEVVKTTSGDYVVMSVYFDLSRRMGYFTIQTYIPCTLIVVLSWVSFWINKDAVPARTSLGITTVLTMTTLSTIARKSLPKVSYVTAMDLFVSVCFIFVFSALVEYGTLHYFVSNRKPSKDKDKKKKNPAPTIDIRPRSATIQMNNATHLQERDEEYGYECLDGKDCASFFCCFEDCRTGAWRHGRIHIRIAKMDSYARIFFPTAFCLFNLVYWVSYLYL
T2 sequence (P23576 whole entry): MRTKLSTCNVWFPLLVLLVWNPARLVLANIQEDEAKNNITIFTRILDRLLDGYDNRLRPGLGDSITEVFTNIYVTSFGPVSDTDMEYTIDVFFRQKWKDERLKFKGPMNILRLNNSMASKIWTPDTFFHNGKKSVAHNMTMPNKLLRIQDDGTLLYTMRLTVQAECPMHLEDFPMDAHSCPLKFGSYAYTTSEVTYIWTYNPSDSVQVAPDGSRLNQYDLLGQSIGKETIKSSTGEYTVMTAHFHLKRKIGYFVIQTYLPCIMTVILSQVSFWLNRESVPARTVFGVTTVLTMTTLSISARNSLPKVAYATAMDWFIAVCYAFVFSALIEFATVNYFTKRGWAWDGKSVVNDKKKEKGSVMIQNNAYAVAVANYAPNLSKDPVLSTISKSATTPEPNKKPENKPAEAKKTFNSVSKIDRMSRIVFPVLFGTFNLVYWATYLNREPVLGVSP
T2 sequence (P63138 whole entry): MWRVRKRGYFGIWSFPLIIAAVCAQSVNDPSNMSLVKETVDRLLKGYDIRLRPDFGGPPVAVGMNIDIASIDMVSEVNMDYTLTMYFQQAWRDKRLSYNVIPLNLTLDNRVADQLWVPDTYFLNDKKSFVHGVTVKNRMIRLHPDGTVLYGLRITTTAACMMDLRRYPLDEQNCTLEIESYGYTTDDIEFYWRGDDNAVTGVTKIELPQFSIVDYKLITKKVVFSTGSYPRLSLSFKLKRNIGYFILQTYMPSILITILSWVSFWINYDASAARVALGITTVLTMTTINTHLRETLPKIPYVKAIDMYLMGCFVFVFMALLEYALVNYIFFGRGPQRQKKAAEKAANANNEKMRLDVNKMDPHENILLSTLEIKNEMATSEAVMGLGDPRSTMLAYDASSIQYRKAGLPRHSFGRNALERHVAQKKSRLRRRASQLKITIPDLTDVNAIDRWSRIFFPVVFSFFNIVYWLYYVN

[9] = molecular target: GABA A receptor alpha-5/beta-3/gamma-2 (Rattus norvegicus, UniProt P18508+P19969+P63079); test: Binding affinity for recombinant rat GABA-A receptor alpha-5-beta-3-gamma-2 subunits expressed in HEK 293 cells; format: cell-based, HEK293
GABA A receptor alpha-5/beta-3/gamma-2, sequence (P18508 whole entry): as the sequence (P18508 whole entry) above
GABA A receptor alpha-5/beta-3/gamma-2, sequence (P19969 whole entry): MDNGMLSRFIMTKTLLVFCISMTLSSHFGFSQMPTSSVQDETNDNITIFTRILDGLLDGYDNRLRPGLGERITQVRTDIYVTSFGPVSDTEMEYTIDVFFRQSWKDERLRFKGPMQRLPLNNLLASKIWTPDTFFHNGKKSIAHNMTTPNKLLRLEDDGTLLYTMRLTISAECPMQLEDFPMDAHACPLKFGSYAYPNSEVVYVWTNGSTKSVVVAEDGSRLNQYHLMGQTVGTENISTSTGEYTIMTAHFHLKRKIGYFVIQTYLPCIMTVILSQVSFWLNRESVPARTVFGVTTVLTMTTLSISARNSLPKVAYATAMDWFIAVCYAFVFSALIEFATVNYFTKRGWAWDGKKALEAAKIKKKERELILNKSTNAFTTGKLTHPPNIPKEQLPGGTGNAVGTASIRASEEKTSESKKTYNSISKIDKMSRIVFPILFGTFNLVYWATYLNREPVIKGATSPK
GABA A receptor alpha-5/beta-3/gamma-2, sequence (P63079 whole entry): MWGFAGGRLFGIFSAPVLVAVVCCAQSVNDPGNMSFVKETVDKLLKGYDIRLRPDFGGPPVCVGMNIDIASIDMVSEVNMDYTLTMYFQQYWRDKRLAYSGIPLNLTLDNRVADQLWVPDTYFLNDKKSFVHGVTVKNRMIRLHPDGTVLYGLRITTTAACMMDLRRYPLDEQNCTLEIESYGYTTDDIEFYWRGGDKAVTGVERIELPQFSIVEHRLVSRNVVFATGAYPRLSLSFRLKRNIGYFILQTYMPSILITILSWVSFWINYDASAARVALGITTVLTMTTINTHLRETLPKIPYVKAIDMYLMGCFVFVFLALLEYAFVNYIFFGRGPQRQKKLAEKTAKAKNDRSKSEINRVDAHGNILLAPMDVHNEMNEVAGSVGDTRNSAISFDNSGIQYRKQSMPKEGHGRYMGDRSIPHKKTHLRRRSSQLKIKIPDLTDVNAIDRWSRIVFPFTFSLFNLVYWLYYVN

[10] = molecular target: GABA-A receptor; alpha-1/beta-2/gamma-2 (Rattus norvegicus, UniProt P18508+P62813+P63138); test: Binding affinity for recombinant rat GABA-A receptor alpha-1-beta-2-gamma-2 subunits expressed in HEK293 cells; format: cell-based
GABA-A receptor; alpha-1/beta-2/gamma-2, sequence (P18508 whole entry): as the sequence (P18508 whole entry) above
GABA-A receptor; alpha-1/beta-2/gamma-2, sequence (P62813 whole entry): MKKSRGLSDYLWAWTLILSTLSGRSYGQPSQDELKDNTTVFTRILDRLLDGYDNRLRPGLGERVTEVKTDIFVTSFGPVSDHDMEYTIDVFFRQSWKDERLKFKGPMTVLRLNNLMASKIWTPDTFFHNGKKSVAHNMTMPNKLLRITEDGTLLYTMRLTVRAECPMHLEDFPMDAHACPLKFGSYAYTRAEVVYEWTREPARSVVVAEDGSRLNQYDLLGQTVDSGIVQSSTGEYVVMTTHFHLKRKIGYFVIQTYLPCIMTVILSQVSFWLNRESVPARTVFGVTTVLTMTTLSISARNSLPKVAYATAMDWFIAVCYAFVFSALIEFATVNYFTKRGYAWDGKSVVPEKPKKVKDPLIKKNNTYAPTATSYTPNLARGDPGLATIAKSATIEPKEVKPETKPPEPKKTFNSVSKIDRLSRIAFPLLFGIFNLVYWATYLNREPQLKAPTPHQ
GABA-A receptor; alpha-1/beta-2/gamma-2, sequence (P63138 whole entry): as the sequence (P63138 whole entry) above

[11] = test system: Mus musculus; test: Antianxiety activity was tested in mice at dose of 10 mg/kg in light; format: functional
[12] = test system: Mus musculus; test: Antianxiety activity was tested in mice at dose of 10 mg/kg using light/dark box test; format: functional
[13] = molecular target: T2, GABA A receptor alpha-2/beta-2/gamma-2; test: Binding affinity for recombinant rat alpha-2-beta-2-gamma-2 GABA-A receptor subunits expressed in HEK293 cells; format: cell-based
[14] = test system: Mus musculus; test: Muscle relaxant effect in mice at dose of 30 mg/kg using rotarod test, value was expressed as no. of falls in 30 seconds; format: functional
[15] = test system: Mus musculus; test: Antianxiety activity was tested in mice at dose of 30 mg/kg in light; format: functional
[16] = test system: Mus musculus; test: Antianxiety activity was tested in mice at dose of 30 mg/kg using light/dark box test; format: functional
[17] = molecular target: GABA A receptor alpha-3/beta-2/gamma-2 (Rattus norvegicus, UniProt P18508+P20236+P63138); test: Binding affinity for recombinant rat GABA-A receptor alpha-3-beta-2-gamma-2 subunits expressed in HEK293 cells; format: cell-based
GABA A receptor alpha-3/beta-2/gamma-2, sequence (P18508 whole entry): as the sequence (P18508 whole entry) above
GABA A receptor alpha-3/beta-2/gamma-2, sequence (P20236 whole entry): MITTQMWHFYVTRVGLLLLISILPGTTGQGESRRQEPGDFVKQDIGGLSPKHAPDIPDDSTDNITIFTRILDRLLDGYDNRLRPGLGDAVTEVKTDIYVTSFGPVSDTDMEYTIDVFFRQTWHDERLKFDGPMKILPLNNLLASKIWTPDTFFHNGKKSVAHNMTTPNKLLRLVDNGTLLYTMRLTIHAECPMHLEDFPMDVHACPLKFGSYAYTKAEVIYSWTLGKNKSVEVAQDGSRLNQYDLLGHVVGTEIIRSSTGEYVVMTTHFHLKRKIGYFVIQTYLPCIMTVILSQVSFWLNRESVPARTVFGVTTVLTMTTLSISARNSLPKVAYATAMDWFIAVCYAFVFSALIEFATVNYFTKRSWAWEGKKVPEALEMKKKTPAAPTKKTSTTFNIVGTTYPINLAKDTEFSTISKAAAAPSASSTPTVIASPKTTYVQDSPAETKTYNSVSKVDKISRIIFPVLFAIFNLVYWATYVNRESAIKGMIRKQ
GABA A receptor alpha-3/beta-2/gamma-2, sequence (P63138 whole entry): as the sequence (P63138 whole entry) above

[18] = test system: Mus musculus; test: Percent anticonvulsant activity against PTZ induced attack in mice at dose of 30 mg/kg; format: functional
[19] = test system: Mus musculus; test: Synergic sedative effect was tested in mice using the Hole Board test at peroral dose of 3 mg/kg, value was expressed in holes; format: functional; settings: route oral
[20] = test system: Mus musculus; test: Muscle relaxant effect in mice at dose of 3 mg/kg using rotarod test, value was expressed as no. of falls in 30 seconds; format: functional
[21] = test system: Mus musculus; test: Percent anticonvulsant activity against PTZ induced attack in mice at dose of 3 mg/kg; format: functional
[22] = test system: Mus musculus; test: Synergic sedative effect was tested in mice using the Hole Board test at peroral dose of 3 mg/kg, value was expressed in plane; format: functional; settings: route oral
[23] = test system: Mus musculus; test: Muscle relaxant effect in mice at peroral dose of 0.3 mg/kg using rotarod test, value was expressed as no. of falls in 30 seconds; format: functional; settings: route oral
[24] = test system: Mus musculus; test: Antianxiety activity was tested in mice at peroral dose of 1 mg/kg using light/dark box test; format: functional; settings: route oral
[25] = test system: Mus musculus; test: Antianxiety activity was tested in mice at peroral dose of 0.3 mg/kg in light; format: functional; settings: route oral
[26] = test system: Mus musculus; test: Antianxiety activity was tested in mice at peroral dose of 0.3 mg/kg using light/dark box test; format: functional; settings: route oral
[27] = test system: Mus musculus; test: Muscle relaxant effect in mice at peroral dose of 1 mg/kg using rotarod test, value was expressed as no. of falls in 30 seconds; format: functional; settings: route oral
[28] = test system: Mus musculus; test: Antianxiety activity was tested in mice at peroral dose of 1 mg/kg in light; format: functional; settings: route oral
[29] = test system: Mus musculus; test: Synergic sedative effect was tested in mice using the Hole Board test at peroral dose of 30 mg/kg, value was expressed in plane; format: functional; settings: route oral
[30] = test system: Mus musculus; test: Synergic sedative effect was tested in mice using the Hole Board test at peroral dose of 30 mg/kg, value was expressed in holes; format: functional; settings: route oral

SMILES | No. of falls [2] | Activity [4] [%] | inhibition [5] [%] | Ratio [6] | pKi [7] | pKi [8] | pKi [9] | pKi [10] | other results
Cc1ccc(-c2nc3ccc(C)cn3c2CC(=O)N(C)C)cc1.Oc1c(-c2ccsc2)cnc2c(-c3ccccn3)cnn12 | 1.1 | 90 | – | – | – | – | – | – | No. of counts ([1]; 10 mg/kg): 25.8 and 9.38; No. of counts ([3]; 10 mg/kg): 68 and 28.7
Oc1c(-c2ccsc2)cnc2c(Cc3ccccc3)cnn12 | – | – | 55 | – | – | – | – | – | –
Oc1c(-c2ccsc2)cnc2c(-c3ccc(F)cc3)cnn12 | – | – | 99 | 0.9 | 7.51 | – | – | – | –
Oc1c(-c2ccsc2)cnc2c(-c3cccnc3)cnn12 | – | – | 100 | 1.51 | 7.52 | 6.50 | 6.68 | 7.60 | –
CN1C(=O)CN=C(c2ccccc2)c2cc(Cl)ccc21.Oc1c(-c2ccsc2)cnc2c(-c3ccccn3)cnn12 | 0.5 | 90 | – | – | – | – | – | – | No. of counts [1]: 25.8; Time [11]: 120.9 s; No. of counts [3]: 68; No. of crosses [12]: 26.2
Oc1c(-c2ccsc2)cnc2c(-c3cccc(F)c3)cnn12 | – | – | 92 | 1.2 | 7.14 | – | – | – | –
COc1cccc(-c2cnn3c(O)c(-c4ccsc4)cnc23)c1 | – | – | 92 | 1.25 | 7.37 | – | 6.13 | 7.37 | pKi [13]: 6.08
Oc1c(-c2ccsc2)cnc2c(-c3ccsc3)cnn12 | 0 | 36.4 | 100 | 1.3 | 7.80 | 6.70 | 6.65 | 7.64 | No. of counts [1]: 52.7; Time [11]: 94.9 s; No. of counts [3]: 12.2; No. of falls [14]: 0.3; No. of crosses [12]: 19.7; Time [15]: 72.3 s; No. of crosses [16]: 11.8; pKi [17]: 6.71; Activity [18]: 9.1%
Oc1c(-c2ccsc2)cnc2c(-c3cccc(Br)c3)cnn12 | – | – | 87 | 1.72 | 8.06 | 6.54 | 7.66 | 8.00 | pKi [17]: 6.95
Oc1c(-c2ccsc2)cnc2c(-c3cccc(C(F)(F)F)c3)cnn12 | 0.1 | 29.4 | 96 | 2 | 8.24 | 6.27 | 6.68 | 8.00 | No. of counts [1]: 60.7; Time [11]: 69.4 s; No. of counts [3]: 139.6; No. of falls [14]: 0.2; No. of crosses [12]: 17.1; Time [15]: 77.3 s; No. of crosses [16]: 12.7; pKi [17]: 7.05; Activity [18]: 0%
Cc1cccc(-c2cnn3c(O)c(-c4ccsc4)cnc23)c1 | – | – | 97 | 2 | 7.59 | – | – | – | –
Cc1ccc(-c2nc3ccc(C)cn3c2CC(=O)N(C)C)cc1 [ZOLPIDEM] | 0.8 | 90 | – | – | – | – | – | – | No. of counts [1]: 26.3; No. of counts [19]: 45; No. of falls [20]: 0.2; No. of counts [3]: 54.4; Activity [21]: 70%; No. of counts [22]: 84.7
Oc1c(-c2ccsc2)cnc2c(-c3cccc4ccccc34)cnn12 | – | – | 92 | 1.02 | 7.40 | < 5.00 | 6.81 | 7.33 | –
Oc1c(-c2ccsc2)cnc2c(-c3ccc4ccccc4c3)cnn12 | – | – | 30 | – | – | – | – | – | –
Oc1c(-c2ccsc2)cnc2c(-c3ccccc3)cnn12 | – | – | 94 | 1.71 | 6.95 | – | – | – | –
CN1C(=O)CN=C(c2ccccc2)c2cc(Cl)ccc21 [DIAZEPAM] | – | – | – | – | – | – | – | – | No. of falls [23]: 0.5; No. of crosses [24]: 21.5; Time [25]: 85 s; No. of crosses [26]: 22; No. of falls [27]: 0.7; Time [28]: 117.5 s
Oc1c(-c2ccsc2)cnc2c(-c3ccccn3)cnn12 | 0.3 | 19 | 98 | 1.1 | 8.41 | 6.03 | 6.13 | 8.15 | No. of counts [1]: 55.9; No. of counts [29]: 110.4; Time [11]: 90.6 s; No. of counts [30]: 50.9; No. of counts [3]: 96.6; No. of falls [14]: 0.3; No. of crosses [12]: 19.6; Activity [18]: 10%
